Experiment [1] has as its target T1, ΔF508-CFTR (Homo sapiens, UniProt P13569, DEL508-508).
T1 construct: host or cells: CFBE41o-, doxycycline-inducible
Description: CFTR cell surface levels using HRP-tagged ΔF508-CFTR expressing CFBE cells, in the presence of a co-corrector. The format is cell-based. Conditions: HRP-tagged ΔF508-CFTR expressing CFBE cells, in the presence of 3 μM co-corrector; for EC50: read-out: EC50. A digest of the protocol: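 Cells were seeded with 0.5 μg/mL doxycycline and held 68 h at 37 °C. Test compounds plus 3 μM co-corrector (final 0.1% DMSO) were then added for 20 h at 33 °C. Washed cells received HRP substrate, and luminescence was normalized between DMSO and 3 μM co-corrector controls.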

The target in experiment [2] is T1, ΔF508-CFTR. Description: CFTR cell surface levels using HRP-tagged ΔF508-CFTR expressing CFBE cells, intrinsic corrector capacity. It counts as cell-based. Conditions: for EC50: read-out: EC50. A digest of the protocol:
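Here the cells express ΔF508-CFTR with horseradish peroxidase inserted in extracellular loop 4, so only rescued channel at the surface gives luminescent signal. Compounds act on their own, 20 h at the reduced temperature of 33 °C; values are percent activity relative to DMSO and a 3 μM corrector.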

[3] abbreviates: HRP-tagged ΔF508-CFTR CFBE41o- cells, compounds alone (intrinsic corrector capacity), 20 hours at 33° C., positive control 3 μM corrector.
Setting [4] is: HRP-tagged ΔF508-CFTR CFBE41o- cells, compounds alone (intrinsic corrector capacity), 20 hours at 33° C.
[5] abbreviates: HRP-tagged ΔF508-CFTR expressing CFBE cells, intrinsic corrector capacity (no co-corrector), 33° C., 20 hours.

T1 sequence (P13569 with tags, fused parts or gaps DEL508-508): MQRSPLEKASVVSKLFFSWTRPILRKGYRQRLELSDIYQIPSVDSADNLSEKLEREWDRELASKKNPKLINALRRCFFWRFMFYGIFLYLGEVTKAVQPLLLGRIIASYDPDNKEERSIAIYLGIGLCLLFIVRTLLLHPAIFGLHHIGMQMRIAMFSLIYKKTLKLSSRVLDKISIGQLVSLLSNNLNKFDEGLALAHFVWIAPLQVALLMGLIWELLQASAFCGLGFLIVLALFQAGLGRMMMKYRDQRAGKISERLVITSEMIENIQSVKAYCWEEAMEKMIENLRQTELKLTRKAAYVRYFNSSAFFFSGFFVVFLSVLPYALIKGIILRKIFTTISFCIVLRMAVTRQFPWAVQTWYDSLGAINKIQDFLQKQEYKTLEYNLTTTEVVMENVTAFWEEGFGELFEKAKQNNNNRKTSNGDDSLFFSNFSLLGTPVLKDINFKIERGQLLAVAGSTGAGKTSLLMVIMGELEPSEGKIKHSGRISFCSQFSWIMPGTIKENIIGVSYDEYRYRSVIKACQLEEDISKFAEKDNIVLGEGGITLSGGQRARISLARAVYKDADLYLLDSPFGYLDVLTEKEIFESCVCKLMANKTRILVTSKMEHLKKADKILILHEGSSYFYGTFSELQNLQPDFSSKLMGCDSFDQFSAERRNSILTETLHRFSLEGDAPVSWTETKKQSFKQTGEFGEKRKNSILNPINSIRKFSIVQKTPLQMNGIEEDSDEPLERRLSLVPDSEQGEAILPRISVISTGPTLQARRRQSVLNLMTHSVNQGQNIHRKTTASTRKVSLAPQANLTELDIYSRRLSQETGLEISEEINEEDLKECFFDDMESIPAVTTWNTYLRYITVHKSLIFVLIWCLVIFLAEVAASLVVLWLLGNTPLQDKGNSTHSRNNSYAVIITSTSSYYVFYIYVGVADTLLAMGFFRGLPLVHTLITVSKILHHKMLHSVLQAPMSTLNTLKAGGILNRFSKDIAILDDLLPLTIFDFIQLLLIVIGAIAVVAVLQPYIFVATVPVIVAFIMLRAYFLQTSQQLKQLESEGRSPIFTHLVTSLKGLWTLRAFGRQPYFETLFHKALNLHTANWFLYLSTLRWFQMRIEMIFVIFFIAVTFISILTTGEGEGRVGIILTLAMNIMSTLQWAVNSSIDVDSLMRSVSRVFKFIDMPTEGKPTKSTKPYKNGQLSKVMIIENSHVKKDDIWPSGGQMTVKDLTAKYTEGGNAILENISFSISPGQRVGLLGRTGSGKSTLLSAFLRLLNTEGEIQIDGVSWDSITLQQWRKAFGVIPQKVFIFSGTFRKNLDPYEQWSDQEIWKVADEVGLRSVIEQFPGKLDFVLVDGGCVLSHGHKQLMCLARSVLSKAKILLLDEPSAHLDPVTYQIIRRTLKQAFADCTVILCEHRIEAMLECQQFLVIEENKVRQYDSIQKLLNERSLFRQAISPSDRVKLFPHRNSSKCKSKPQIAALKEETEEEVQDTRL

Broadly, the EC50 is the concentration needed to bring the measured effect to its halfway point. Take `COC1CCN(c2cc(C(=O)O)nc3c2c(C(C)C)nn3C2CCCCC2)CC1` [compound 264, 1-cyclohexyl-4-(4-methoxypiperidin-1-yl)-3-(propan-2-yl)-1H-pyrazolo[3,4-b]pyridine-6-carboxylic acid]: the results for the “% Activation” value in experiment [1] and in experiment [2] (setting [3]) were 428.47% and 213.88%, respectively. In addition, the EC50 came to 463 nM in experiment [1] and 747 nM in experiment [2] (setting [4]).

`CC(C)c1nn(-c2cccc(N3CCCC3)c2)c2nc(C(=O)O)cc(-c3ccc(N(C)C4CCOCC4)cc3)c12` [compound 249, 4-{4-[nethyl(oxan-4-yl)amino]phenyl}-3-(propan-2-yl)-1-[3-(pyrrolidin-1-yl)phenyl]-1H-pyrazolo[3,4-b]pyridine-6-carboxylic acid]: the “% Activation” value in experiment [1] turned out to be 596.2%; in experiment [2] (setting [3]), 410.6%. The results for the EC50 in experiment [1] and in experiment [2] (setting [4]) were 288 nM and 475 nM, respectively.

Turning to `CC(C)c1nn(-c2ccc(F)cc2)c2nc(C(=O)O)cc(N3CC[C@@H](N4CCCCC4)C3)c12` [compound 786, 1-(4-fluorophenyl)-4-[(3R)-3-(piperidin-1-yl)pyrrolidin-1-yl]-3-(propan-2-yl)-1H-pyrazolo[3,4-b]pyridine-6-carboxylic acid], in experiment [1], the “% Activation” value is recorded as 221.6% and the EC50 was found to be 907 nM. Moreover, in experiment [2] (setting [5]), the “% Activation” value is given as 67.03% and the EC50 came to 1160 nM.

For the compound `CN1C(=O)CN(CC2CCN(c3cc(C(=O)O)nc4c3c(C3CCC3)nn4-c3ccccc3)CC2)CC12COC2` [compound 845, 3-cyclobutyl-4-{4-[(5-methyl-6-oxo-2-oxa-5,8-diazaspiro[3.5]nonan-8-yl)methyl]piperidin-1-yl}-1-phenyl-1H-pyrazolo[3,4-b]pyridine-6-carboxylic acid], the “% Activation” value in experiment [1] is recorded as 499.6%; in experiment [2] (setting [5]), 273.7%. Besides, the figures for the half-maximal effective concentration (EC50) in experiment [1] and in experiment [2] (setting [5]) were 1080 nM and 1470 nM, respectively.

With `O=C(O)c1cc(OCC(F)(F)F)c2c(C3CCC3)nn(-c3ccccc3)c2n1` [compound 613, 3-cyclobutyl-1-phenyl-4-(2,2,2-trifluoroethoxy)-1H-pyrazolo[3,4-b]pyridine-6-carboxylic acid], in experiment [1], the “% Activation” value was determined as 292% and the concentration for a half-maximal effect (EC50) was determined as 739 nM. Moreover, in experiment [2] (setting [5]), the “% Activation” value was determined as 99.78% and the concentration for a half-maximal effect (EC50) worked out at 1600 nM.

For the compound `COC1CN(c2cccc(-n3nc(C(C)C)c4c(-c5ccc(N6CCOCC6)cc5)cc(C(=O)O)nc43)c2)C1` [compound 164, 1-[3-(3-methoxyazetidin-1-yl)phenyl]-4-[4-(morpholin-4-yl)phenyl]-3-(propan-2-yl)-1H-pyrazolo[3,4-b]pyridine-6-carboxylic acid], the figures for the “% Activation” value in experiment [1] and in experiment [2] (setting [3]) were 608.5% and 359.9%, respectively. Further, the concentration for a half-maximal effect (EC50) is 375 nM in experiment [1] and 675 nM in experiment [2] (setting [4]).

Consider `CC(C)c1nn(C2CCCN(CC(F)(F)F)C2)c2nc(C(=O)O)cc(-c3ccc(N4CCOCC4)cc3)c12` (centres unmarked) [compound 161, 4-[4-(morpholin-4-yl)phenyl]-3-(propan-2-yl)-1-[1-(2,2,2-trifluoroethyl)piperidin-3-yl]-1H-pyrazolo[3,4-b]pyridine-6-carboxylic acid], for which the “% Activation” value was 333.87% in experiment [1] and 111.83% in experiment [2] (setting [3]). The values for the concentration giving a half-maximal response (EC50) in experiment [1] and in experiment [2] (setting [4]) were 795 nM and 921 nM, respectively.

In the case of `COC1CN(CC2CCN(c3cc(C(=O)O)nc4c3c(C3CCC3)nn4-c3ccccc3)CC2)C1` [compound 829, 3-cyclobutyl-4-{4-[(3-methoxyazetidin-1-yl)methyl]piperidin-1-yl}-1-phenyl-1H-pyrazolo[3,4-b]pyridine-6-carboxylic acid], in experiment [1], the “% Activation” value is recorded as 411.7% and the EC50 amounted to 344 nM. Besides, in experiment [2] (setting [5]), the “% Activation” value came out at 170.7% and the concentration for a half-maximal effect (EC50) is 381 nM.

Take `Cc1nn(-c2ccccc2)c2nc(C(=O)O)cc(-c3ccc(N4CC5(COC5)C4)cc3)c12` [compound 126, 3-methyl-4-[4-(2-oxa-6-azaspiro[3.3]heptan-6-yl)phenyl]-1-phenyl-1H-pyrazolo[3,4-b]pyridine-6-carboxylic acid]: the “% Activation” value worked out at 319.25% in experiment [1] and 156.45% in experiment [2] (setting [3]). Also, the results for the concentration giving a half-maximal response (EC50) in experiment [1] and in experiment [2] (setting [4]) were 837 nM and 1690 nM, respectively.

Take `Cc1cccc(-n2nc(C(C)C)c3c(N4CC5CN(CC#N)CC5C4)cc(C(=O)O)nc32)c1` (centres unmarked) [compound 226, 4-[5-(cyanomethyl)hexahydropyrrolo[3,4-c]pyrrol-2(1H)-yl]-1-(3-methylphenyl)-3-(propan-2-yl)-1H-pyrazolo[3,4-b]pyridine-6-carboxylic acid]: the “% Activation” value stood at 352.2% in experiment [1] and 189.05% in experiment [2] (setting [3]). The EC50 in experiment [1] amounted to 1350 nM; in experiment [2] (setting [4]), 3340 nM.

As to `Cc1nn(-c2ccccc2)c2nc(C(=O)O)cc(N3CC4(CCOCC4)C3)c12` [compound 293, 3-methyl-4-(7-oxa-2-azaspiro[3.5]nonan-2-yl)-1-phenyl-1H-pyrazolo[3,4-b]pyridine-6-carboxylic acid], the “% Activation” value in experiment [1] was 264.9%; in experiment [2] (setting [3]), 90.275%. For the same compound, the EC50 in experiment [1] and in experiment [2] (setting [4]) was 2510 nM in each case.

`CC(C)c1nn(-c2ccc(F)cc2)c2nc(C(=O)O)cc(N3CC4(CCCOC4)C3)c12` [compound 400, 1-(4-fluorophenyl)-4-(6-oxa-2-azaspiro[3.5]nonan-2-yl)-3-(propan-2-yl)-1H-pyrazolo[3,4-b]pyridine-6-carboxylic acid]: in experiment [1], the “% Activation” value turned out to be 283.65% and the EC50 is 980 nM. Besides, in experiment [2] (setting [5]), the “% Activation” value is 111.35% and the concentration giving a half-maximal response (EC50) turned out to be 1350 nM.

With `COC1CCN(C2CCN(c3cc(C(=O)O)nc4c3c(C3CCC3)nn4-c3ccc(F)cc3)CC2)C1` (centres unmarked) [compound 848, 3-cyclobutyl-1-(4-fluorophenyl)-4-[4-(3-methoxypyrrolidin-1-yl)piperidin-1-yl]-1H-pyrazolo[3,4-b]pyridine-6-carboxylic acid], in experiment [1], the “% Activation” value was determined as 405.2% and the EC50 was 427 nM. In addition, in experiment [2] (setting [5]), the “% Activation” value turned out to be 249% and the concentration for a half-maximal effect (EC50) amounted to 1200 nM.

On to `O=C(O)c1cc(N2CCCCCC2)c2c(C3CCC3)nn(-c3ccccc3)c2n1` [compound 473, 4-(azepan-1-yl)-3-cyclobutyl-1-phenyl-1H-pyrazolo[3,4-b]pyridine-6-carboxylic acid], for which, in experiment [1], the “% Activation” value is recorded as 280.9% and the EC50 came out at 545 nM. Moreover, in experiment [2] (setting [5]), the “% Activation” value is 102.9% and the EC50 amounted to 1020 nM.

With `CCN(CC)CC1(N2CC(Oc3cc(C(=O)O)nc4c3c(C3CCC3)nn4-c3ccccc3)C2)COC1` [compound 646, 3-cyclobutyl-4-[(1-{3-[(diethylamino)methyl]oxetan-3-yl}azetidin-3-yl)oxy]-1-phenyl-1H-pyrazolo[3,4-b]pyridine-6-carboxylic acid], the entries for the “% Activation” value in experiment [1] and in experiment [2] (setting [5]) were 198% and 45.39%, respectively. For the same compound, the 50% effective concentration (EC50) in experiment [1] and in experiment [2] (setting [5]) was 3330 nM each time.

Turning to `CNC[C@@H]1CCN(c2cc(C(=O)O)nc3c2c(C2CCC2)nn3-c2ccccc2)C1` [compound 676, 3-cyclobutyl-4-{(3S)-3-[(methylamino)methyl]pyrrolidin-1-yl}-1-phenyl-1H-pyrazolo[3,4-b]pyridine-6-carboxylic acid], in experiment [1], the “% Activation” value amounted to 164.55% and the EC50 was 892 nM. In experiment [2] (setting [5]), the “% Activation” value worked out at 35.03% and the EC50 stood at 5000 nM.

With `Cc1cccc(-n2nc(C(C)C)c3c(-c4ccc(N5CCOCC5)cc4)cc(C(=O)O)nc32)c1` [compound 20, 1-(3-methylphenyl)-4-[4-(morpholin-4-yl)phenyl]-3-(propan-2-yl)-1H-pyrazolo[3,4-b]pyridine-6-carboxylic acid], the “% Activation” value in experiment [1] is reported as 450.9%; in experiment [2] (setting [3]) it was 199.98%. The EC50 in experiment [1] came to 371 nM; in experiment [2] (setting [4]) it was 522 nM.

As for `O=C(CN1CCN(c2cc(C(=O)O)nc3c2c(C2CCC2)nn3-c2ccccc2)CC1)NC1CCCCC1` [compound 540, 3-cyclobutyl-4-{4-[2-(cyclohexylamino)-2-oxoethyl]piperazin-1-yl}-1-phenyl-1H-pyrazolo[3,4-b]pyridine-6-carboxylic acid], in experiment [1], the “% Activation” value came to 314.05% and the 50% effective concentration (EC50) was 324 nM. In addition, in experiment [2] (setting [5]), the “% Activation” value is listed as 142.2% and the EC50 came to 452 nM.

Turning to `Cc1nn(-c2ccccc2)c2nc(C(=O)O)cc(N3CCCCC3=O)c12` [compound 150, 3-methyl-4-(2-oxopiperidin-1-yl)-1-phenyl-1H-pyrazolo[3,4-b]pyridine-6-carboxylic acid], the “% Activation” value came to 115.3% in experiment [1] and 6.341% in experiment [2] (setting [3]). The EC50 in experiment [1] and in experiment [2] (setting [4]) was above 10000 nM in each case.

Turning to `CC(C)c1nn(C2CCOC2)c2nc(C(=O)O)cc(-c3ccc(N4CCOCC4)cc3)c12` (centres unmarked) [compound 120, 4-[4-(morpholin-4-yl)phenyl]-1-(oxolan-3-yl)-3-(propan-2-yl)-1H-pyrazolo[3,4-b]pyridine-6-carboxylic acid], the figures for the “% Activation” value in experiment [1] and in experiment [2] (setting [3]) were 231.45% and 70.235%, respectively. For the same compound, the EC50 in experiment [1] turned out to be 3140 nM; in experiment [2] (setting [4]) it was 3340 nM.
